Patent US11565094B2, “Delivery devices” (THE METHODIST HOSPITAL SYSTEM, priority 2017, dated 2023)

Key:
[1] = VEGF 0.5 and 5 μg/mL in PLM, subcutaneous device
Procedure: The encapsulation systems were evaluated in nude mice (Nu/Nu, female, 8-10 week old), after receiving approval by the Institutional Animal Care and Use Committee of Houston Methodist Research Institute. Surface treated and sterilized devices, loaded with platelet-lysate matrix (PLM) enriched with VEGF at two different concentrations (0.5 and 5 μg/mL), were implanted subcutaneously in the mice dorsum (n=12 per group). At 1, 2, and 4 weeks post implantation, 4 mice per group were euthanized and the graft explanted for the histological assessment of vascularization and innervation. The implant and surrounding tissues were harvested and processed for histopathology evaluation of tissue response to the implanted device. CD31 antibody (Abcam, ab28364) and a pan-axonal antibody (Cambridge Bioscience, SMI-312R-100) were used to assess vascularization and innervation, respectively.
In vivo vascularization and innervation of oxygen treated devices after subcutaneous implantation in nude mice was then investigated. […] To stimulate neovascularization and to support the islet viability and function for a period of time after transplantation, devices loaded with biological gels with different VEGF concentrations was used. […] Tissue samples were taken from the side of the device closer to the skin, representing the subcutaneous environment.

[2] = parameters: species or system C57Bl6 mice; settings: mouse, in vivo
Text: Utilizing the percutaneous trocar delivery approach, PEEK nano-channel implants loaded with Magnevist were inserted intratumorally into the upper thigh of C57Bl6 mice with induced melanoma. The implants were visualized on T1-weighted images as an area of hypointensity corresponding to the PEEK body and surrounded by a hyperintense halo of contrast agent (FIG. 7B). Implant location could also be identified on T2-weighted images that, in addition, highlighted tumor heterogeneity (FIG. 7A).
An unexpected outcome was the implant's loaded concentration being too high for visualization, as the relaxation time was faster than the scanner could detect. This is further evidenced by the sharp onset of observable enhancement a few mm from the implant's exterior. The narrow band of this observable enhancement, beginning 2-5 mm from the implant's exterior and approximately 1 mm thick, provides evidence of rapid clearance of the contrast agent from the tumor tissue. FIG. 7C serves as an idealized graphical representation of the relationship between the normalized concentration and the visible contrast zone.

distance from implant's exterior where observable enhancement begins [2]	thickness of band of observable enhancement [2]	Compound	number of vessels stained by CD31 versus VEGF concentration [1]
–	–	vascular endothelial growth factor [VEGF]	positive trend
2-5 mm	approximately 1 mm	CNC[C@H](O)[C@@H](O)[C@H](O)[C@H](O)CO.CNC[C@H](O)[C@@H](O)[C@H](O)[C@H](O)CO.O=C([O-])CN(CCN(CC(=O)[O-])CC(=O)O)CCN(CC(=O)[O-])CC(=O)O.[Gd+3] [Magnevist]	–
